PubChem BioAssay (NCI)
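Interpolation was linear, between the two tested concentrations surrounding the appropriate level; five concentrations were tested over 48 hours in 96-well plates. TGI: concentration producing complete growth inhibition.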

Assays:
Assay in all cases: NCI-60 cell line screen, 48 h
SNB-19 CNS = tested on: SNB-19 CNS
SF-539 CNS = tested on: SF-539 CNS
HCT-15 colon = tested on: HCT-15 colon
HOP-62 NSCLC = tested on: HOP-62 NSCLC
SNB-75 CNS = tested on: SNB-75 CNS
A498 renal = tested on: A498 renal
CCRF-CEM leukemia = tested on: CCRF-CEM leukemia
KM12 colon = tested on: KM12 colon
TK-10 renal = tested on: TK-10 renal
ACHN renal = tested on: ACHN renal

Compound	TGI (SNB-19 CNS) [µM]	TGI (SF-539 CNS) [µM]	TGI (HCT-15 colon) [µM]	TGI (HOP-62 NSCLC) [µM]	TGI (SNB-75 CNS) [µM]	TGI (A498 renal) [µM]	TGI (CCRF-CEM leukemia) [µM]	TGI (KM12 colon) [µM]	TGI (TK-10 renal) [µM]	TGI (ACHN renal) [µM]
O=C(O)Cc1ccc(Oc2nc3ccccc3nc2-c2ccccc2)cc1	> 100	> 100	> 100	> 100	> 100	> 100	> 100	> 100	> 100	> 100
C/C(=N\Nc1nc2ccccc2n1C)c1ccc2ccccc2n1	> 100	> 34.3	> 75.7	18.2	46.4	15.6	1.67	43.5	34	> 54.5
COc1ccc(/C=N/n2c(Cc3ccccc3)n[nH]c2=O)cc1	> 100	> 100	> 100	> 100	> 100	> 100	> 100	> 100		> 100
Clc1ccc(Cn2cc(/C=N/n3cnnc3)c3ccccc32)cc1	> 100	> 100	> 100	> 100	68.5	4.34	> 100	> 100	28.7	> 100
CO[C@]12C[C@@H](CNC(=O)c3cc(Br)c[nH]3)O[C@H]1NC(=O)N2	> 100	> 100	> 100	> 100	> 100	> 100	> 100	> 100	> 100	> 100
Nc1ncc(Sc2ccccc2C(=O)O)s1	> 100	> 100	> 100	> 100	> 100	> 100	> 100	> 100	> 100	> 100
CCOP(=O)(/C=C/n1cnc2c(=O)n(C(C)=O)c(N)nc21)OCC	> 100	> 100	> 100	> 100	> 100	> 100	> 100	> 100	> 100	> 100
CCOP(=O)(/C=C\n1ccc(=O)[nH]c1=O)OCC	> 100	> 100	> 100	> 100	> 100	> 100	> 100	> 100	> 100	> 100
O=c1[nH]nc(Cc2ccccc2)n1C1CC1	> 100	> 100	> 100	> 100	> 100	> 100	> 100	> 100	> 100	> 100
Cc1ccc(C=C(C(=O)O)C(=O)O)o1	> 100	> 100	> 100	> 100	> 100	> 100	> 100	> 100	> 100	> 100
CC1(CCCCO)C=CC(S(=O)(=O)c2ccccc2)CC1 (centres undefined)	26.6	20.2	13.3	12.1	13.3	21.7	11.2	8.45	19.1	18.1
O=C(O)c1ccccc1CC(Cc1ccccc1)C(=O)O (centres undefined)	> 100	> 100	> 100	> 100	> 100	> 100	> 100	> 100	> 100	> 100
CC(C)=NNc1ncnc2nc[nH]c12	> 100	> 88.9	> 100	> 76.7	> 79.6	54.2	> 100	> 100	> 100	> 100
O=C(c1ccccc1)c1ccc2nc3n(c2c1)C(c1c(Cl)cccc1Cl)SC3 (centres undefined)	> 64.1	> 59.4	> 100	> 44.4	18.9	50.1	> 100	19.5	> 100	> 38
Nc1nc2c(c(=O)[nH]1)NC(CCNc1ccc(C(=O)O)cc1)CN2 (centres undefined)	> 100	> 100	> 100	> 100	> 100	> 100	> 100	> 100	> 100	> 100
O=C1c2ccccc2/C=C\C(c2ccccc2)=N/N1c1ccccc1Cl	> 100	> 100	> 100	92.8	97.8	71.9	> 100	64.4	> 100	> 100
COC(=O)C1(Cc2ccccc2)Cc2c(C)ccc(C)c2C1=O (centres undefined)	> 100	> 100	> 100	> 100	61.3	> 100	> 100	42.8	> 100	> 100
Brc1ccc(-c2nc(-c3ccc(Br)cc3)n(-c3ccccc3)n2)cc1	> 100	> 100	> 100	> 100	> 100	> 100	> 100	> 100	> 100	> 100
